Measured values from patent publication US11077209B2, “Use of cerebral nitric oxide donors in the assessment of the extent of brain dysfunction following injury” (OXFORD UNIVERSITY INNOVATION LIMITED, priority 2016, dated 2021).
Where two headings read alike, the source gives them in different places.

Key:
[1] = test system: patients after severe aneurysmal SAH (WFNS grade 3, 4 or 5)
Method: (§1) Sedative drug levels, muscle relaxants and vasopressors were documented and changes in infusion rates were minimised for the duration of the recording.
The patients also underwent simultaneous transcranial Doppler (TCD) monitoring. Insonation of the MCA M1 segment was performed unilaterally on the side with the best window using colour-coded duplex ultrasound (EZ-Dop, DWL; 2 Mz probe).
The patient's PETCO2, end-tidal O2, ABP and SpO2 were recorded continuously and collected on a Power-1401 data acquisition interface (Cambridge Electronic Design). […] Arterial CO2 values were collected once during the duration of the recording as part of routine clinical care.
Waveform analysis was performed using custom written MATLAB code, enabling calculation of average pre and during infusion values for TCD middle cerebral artery velocity (MCAV) ABP, PETCO2, end-tidal O2 and ICP.

[2] = test system: patients after severe aneurysmal SAH (WFNS grade 3, 4 or 5); conditions: for percentage change in ADR, median: (during infusion-baseline)/baseline x100; for mean percentage change from baseline ADR over time, FIG. 3: after commencement of the nitrite infusion
From the text: Patients aged 18-80 years admitted to the Neurosciences Intensive Care Unit (NICU) at the John Radcliffe Hospital, Oxford after having suffered severe aneurysmal SAH (WFNS grade 3, 4 or 5 at time of presentation) were eligible for inclusion in the study. There were no specific selection criteria apart from grade of SAH, and the absence of any exclusion criteria (see below).
Following definitive endovascular aneurysm treatment, each patient underwent a two hour period of continuous EEG monitoring (Porti 7 system, Twente Medical Systems International) on one occasion as soon as was practically possible after endovascular securing of the aneurysm.
as §1
We used a simplified EEG montage that aimed for compromise between stable maintenance of recording and full coverage of all vascular territories. Consequently, 7-13 unipolar EEG electrodes (depending on the presence of external ventricular drains and intracranial pressure (ICP) monitors) at the following positions defined according to the international 10-20 system: Cz, Fz, Pz, Fp1, Fp2, F3, F4, P3, P4, T3, T4, O1, O2. EEG data were digitized at a sampling rate of 2048 Hz, with a high pass filter of 0.5 Hz and a low pass filter of 30 Hz.
Each surviving patient was followed up at three to six months post-rupture. Telephone follow up was performed for patients who were unable to attend hospital due to their clinical status. Primary outcome was measured by the presence or absence of delayed ischemia. Long term outcome was assessed by modified Rankin scale at 3 months, via structured standardised questions in person or by telephone. The modified Rankin scale, is a commonly used grading system that measures the degree of disability or dependence in the daily activities of people who have suffered a neurological insult. Good outcome is defined as a score of 0-2, whereas poor outcome is defined as ≥3.
Inc.) code and the EEGLAB v13.4.3b analysis toolbox. Datasets were re-referenced to the average of bilateral mastoid reference electrodes and band pass filtered from 0.5 to 15 Hz using a linear finite impulse response (FIR) filter. Each EEG recording was visually inspected and artefacts were manually removed. Channels showing evidence of excessive amounts of noise were removed from each recording.
Spectral analysis was carried out using FieldTrip, a MATLAB software toolbox for EEG analysis. Data was windowed into 30-second segments that overlapped by 50%. Time-frequency analysis was performed using a multi-taper spectral estimation using discrete prolate spheroidal (Slepian) sequences with 14 tapers, and fast Fourier transform algorithm for each electrode channel. Five 60-second epochs were selected randomly from the first (baseline) and last thirty minutes of the recording (during infusion). The epochs were separated by at least 60 seconds to avoid autocorrelation. The corresponding frequency distribution in each epoch was identified, which enabled determination of power values in the following frequency bands: delta 1-4 Hz, alpha 8-12 Hz and total low frequency power 1-15 Hz.
Statistical analysis was carried out using R and the analysis package nlme. We applied a two level linear mixed effects multilevel model to the data to allow for within patient correlation due to repeated measures on each patient over time. […] A qqnorm plot was used to identify any outliers and these were subsequently eliminated from the model. Goodness of fit was assessed via Shapiro-Wilk normality tests on fixed and random effect residuals, and calculation of R^2 for the model.

O=NO [sodium nitrite]
mean MAP in response to sodium nitrite ([1]; 14 patients, from a mean MAP of 87 mmHg, p=0.026): 84 mmHg
change in TCD, MCAV as a result of sodium nitrite infusion ([1]; pre versus during infusion): no significant changes
change in ICP as a result of sodium nitrite infusion ([1]; pre versus during infusion, 10 patients): no significant changes
change in end tidal CO2 as a result of sodium nitrite infusion ([1]; pre versus during infusion, 13 patients): no significant changes
percentage change in ADR, median ([2]; good outcome group): increases
mean percentage change from baseline ADR over time, FIG. 3 ([2]; good outcome group): increases
ADR during infusion, median ([2]; good outcome group, baseline median 0.03): 0.05
delta power response to a 1-hour infusion (discussion) ([2]; patients with good outcome): significant increase
percentage change in ADR, median ([2]; poor outcome group): no significant differences
mean percentage change from baseline ADR over time, FIG. 3 ([2]; poor outcome group): does not change
baseline versus during infusion ADR ([2]; poor outcome patients (mRS >=3)): no significant differences
